# Molecular target: T1, ΔPH-PDK1 (aa 51-359; Q66A mutation) (Homo sapiens, UniProt O15530, Q66A)
# T1 construct: a shortened PDK1 enzyme (aa 51-359; Q66A mutation) is used; His6 (N, cleaved yes)
# T1 sequence (O15530 51-359 Q66A): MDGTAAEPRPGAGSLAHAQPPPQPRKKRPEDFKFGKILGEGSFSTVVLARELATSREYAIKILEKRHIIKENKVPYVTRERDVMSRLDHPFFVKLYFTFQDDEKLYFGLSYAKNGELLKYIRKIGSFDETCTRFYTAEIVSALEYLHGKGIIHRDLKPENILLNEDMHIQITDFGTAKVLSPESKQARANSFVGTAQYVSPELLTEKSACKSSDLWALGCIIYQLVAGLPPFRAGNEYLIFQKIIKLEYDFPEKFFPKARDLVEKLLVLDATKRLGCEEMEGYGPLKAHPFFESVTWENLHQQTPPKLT
# Test: PDK1 kinase assay II (shortened enzyme)
# Assay type: biochemical
# Conditions: compound at 10 μM, one asterisk: incubation for 24 h, read-out: % CTL (residual activity of the enzyme relative to DMSO control)
# Procedure: Another assay was developed in which a shortened PDK1 enzyme (aa 51-359; Q66A mutation) is used that carries in the N-terminal position a His6 tag that is cleaved during purification. (ΔPH-PDK1).
# The following components are combined in a well of a 96-well round-based dish (Messrs. Greiner bio-one, No. 650101): • 15 μL of compound to be tested in varying concentrations (e.g. Starting at 10 μM, and diluted in steps of 1:5) in 3.33% DMSO (final concentration 1% DMSO)/assay buffer (50 mM Tris pH 7.5, 0.05% β-mercaptoethanol, 10 mM Mg-acetate) • 15 μL (ΔPH-PDK1; 12 ng/well) and PDKtide ([…]-QEMFRDFDYIADWC) synthesised by Pepceuticals Limited, Nottingham, United Kingdom; 25 μM final concentration); (ΔPH-PDK1 and PDKtide are together diluted accordingly in assay buffer; PDKtide is present in this mixture as an 83.3 μM solution. These 30 […] are incubated for 24 h at RT before ATP solution is added. • 20 μL ATP solution (25 μM ATP with 1.0 μCi/well gamma-P33-ATP)
# The reaction is started by adding the ATP solution and the mixture is incubated for 120 min at ambient temperature; at the start of the reaction the dishes are shaken gently. The reaction is stopped by the addition of 50 μL/well of 500 mM phosphoric acid (H3PO4) and incubated for about 20 min at ambient temperature. The precipitate is transferred by harvesting onto filter plates (96-well microtitre filter plate: UniFilter GF/C; Messrs Perkin Elmer; No. 6005174), then washed 6 times with 50 mM H3PO4 and dried at 60° C. Then the plate is stuck down with sealing tape, 25 μL/well of scintillation solution (Microscint 0; Messrs. Perkin Elmer; No. 6013611) are added and the amount of P33 precipitated is measured using the Wallac Betacounter. The measured data are evaluated using Graphpad Prism software.
# The % CTL values indicate the residual activity of the enzyme after the addition of the inhibitory compound in the solvent DMSO in relation to the enzyme activity in the solvent DMSO without the addition of a compound (control). The majority of the values were determined using the PDK1 kinase assay III described hereinbefore. The values marked with an asterisk (* or**) were determined using the PDK1 kinase assay II described hereinbefore (one asterisk→incubation for 24 h; two asterisks→incubation for 5 min)
row,Compound,remaining activity at 10 µM [%]
1,Cc1c(C(=O)NC/C=C/c2cc(OC3CCNCC3)c3nc(Nc4ccc(N5CCOCC5)cc4)ncc3c2)c(=O)n(Cc2ccc(F)c(F)c2)n1C,8.9
2,Cc1c(C(=O)NCC#Cc2ccc3nc(Nc4ccc(C(=O)NCCO)cc4)ncc3c2)c(=O)n(Cc2ccc(F)c(F)c2)n1C,12.1
3,Cc1ncc(C(=O)NC/C=C/c2ccc3nc(Nc4ccc(N(C)C5CCN(C)CC5)cc4)ncc3c2)c(=O)n1Cc1ccc(F)c(F)c1,5.8
4,"CN(C)Cc1c[nH]c(/C=C2\C(=O)Nc3cc(/C=C/CNC(=O)c4cncn(Cc5ccc(F)c(F)c5)c4=O)ccc32)c1 [I-15, 1-(3,4-difluorobenzyl)-N-{(2E)-3-[(3Z)-3-({4-[(dimethylamino)methyl]-1H-pyrrol-2-yl}methylidene)-2-oxo-2,3-dihydro-1H-indol-6-yl]prop-2-en-1-yl}-6-oxo-1,6-dihydropyrimidine-5-carboxamide]",15.7
5,"Cc1nc[nH]c1/C=C1\C(=O)Nc2cc(/C=C/CNC(=O)c3c(C)n(C)n(Cc4ccc(F)c(F)c4)c3=O)ccc21 [I-18, 2-(3,4-difluorobenzyl)-1,5-dimethyl-N-[(2E)-3-{(3Z)-3-[(4-methyl-1H-imidazol-5-yl)methylidene]-2-oxo-2,3-dihydro-1H-indol-6-yl}prop-2-en-1-yl]-3-oxo-2,3-dihydro-1H-pyrazole-4-carboxamide]",6.6
6,"C/C(=C\c1ccc2c(c1)NC(=O)/C2=C\c1cnc[nH]1)CNC(=O)c1cncn(Cc2ccc(F)c(F)c2)c1=O [I-45, 1-(3,4-difluorobenzyl)-N-{(2E)-3-[(3Z)-3-(1H-imidazol-5-ylmethylidene)-2-oxo-2,3-dihydro-1H-indol-6-yl]-2-methylprop-2-en-1-yl}-6-oxo-1,6-dihydropyrimidine-5-carboxamide]",7.9
7,"Cc1c(C(=O)NCC#Cc2cc3cnc(Nc4ccccc4)nc3n(C)c2=O)c(=O)n(Cc2ccc(F)c(F)c2)n1C [III-23, 2-(3,4-difluorobenzyl)-1,5-dimethyl-N-{3-[8-methyl-7-oxo-2-(phenylamino)-7,8-dihydropyrido[2,3-d]pyrimidin-6-yl]prop-2-yn-1-yl}-3-oxo-2,3-dihydro-1H-pyrazole-4-carboxamide]",9.1
8,"Cc1c(C#CCNC(=O)c2c(C)n(C)n(Cc3ccc(F)c(F)c3)c2=O)c(=O)n(C(C)C)c2nc(Nc3ccc(N4CCOCC4)cc3)ncc12 [III-28, 2-(3,4-difluorobenzyl)-1,5-dimethyl-N-{3-[5-methyl-2-{[4-(morpholin-4-yl)phenyl]amino}-7-oxo-8-(propane-2-yl)-7,8-dihydropyrido[2,3-d]pyrimidin-6-yl]prop-2-yn-1-yl}-3-oxo-2,3-dihydro-1H-pyrazole-4-carboxamide]",13.8
9,"CN1CCC(Nc2ccc(Nc3ncc4cc(C#CCNC(=O)c5cncn(Cc6ccc(F)c(F)c6)c5=O)ccc4n3)cc2F)CC1 [III-31, 1-(3,4-difluorobenzyl)-N-{3-[2-({3-fluoro-4-[(1-methylpiperidin-4-yl)amino]-phenyl}amino)quinazolin-6-yl]prop-2-yn-1-yl}-6-oxo-1,6-dihydropyrimidine-5-carboxamide]",6.5
10,"CN1CCN(c2ccc(Nc3ncc4cc(/C=C/CNC(=O)c5cncn(Cc6ccc(F)c(F)c6)c5=O)ccc4n3)cc2)CC1 [IV-4, 1-(3,4-difluorobenzyl)-N-[(2E)-3-(2-{[4-(4-methylpiperazin-1-yl)phenyl]-amino}quinazolin-6-yl)prop-2-en-1-yl]-6-oxo-1,6-dihydropyrimidine-5-carboxamide]",67.3
11,"C/C(=C\c1ccc2nc(Nc3ccc(CN(C)C)cc3)ncc2c1)CNC(=O)c1cncn(Cc2ccc(F)c(F)c2)c1=O [IV-28, 1-(3,4-difluorobenzyl)-N-{(2E)-3-[2-({4-[(dimethylamino)methyl]phenyl}amino)-quinazolin-6-yl]-2-methylprop-2-en-1-yl}-6-oxo-1,6-dihydropyrimidine-5-carboxamide]",27.9
12,"CN1CCC(N(C)c2ccc(Nc3ncc4cc(/C=C/CNC(=O)c5cc(Cl)nn(Cc6ccc(F)c(F)c6)c5=O)ccc4n3)cc2)CC1 [IV-40, 6-chloro-2-(3,4-difluorobenzyl)-N-{3-[2-({4-[methyl(1-methylpiperidin-4-yl)amino]phenyl}amino)quinazolin-6-yl]prop-2-en-1-yl}-3-oxo-2,3-dihydropyridazine-4-carboxamide]",25.4
13,"CC(=O)Nc1ccc(Nc2ncc3cc(/C=C/CNC(=O)c4cncn(Cc5ccc(F)c(F)c5)c4=O)ccc3n2)cc1 [IV-47, N-[(2E)-3-(2-{[4-(acetylamino)phenyl]amino}quinazolin-6-yl)prop-2-en-1-yl]-1-(3,4-difluorobenzyl)-6-oxo-1,6-dihydropyrimidine-5-carboxamide]",16.6

# Same assay, conditions: compound at 10 μM, two asterisks: incubation for 5 min, read-out: % CTL (residual activity of the enzyme relative to DMSO control)
row,Compound,remaining activity at 10 µM [%]
1,"CN(C)Cc1ccc(Nc2ncc3cc(C#CCNC(=O)c4cn(C)c(=O)n(Cc5ccc(F)c(F)c5)c4=O)ccc3n2)cc1 [III-21, 3-(3,4-difluorobenzyl)-N-{3-[2-({4-[(dimethylamino)methyl]phenyl}amino)-quinazolin-6-yl]prop-2-yn-1-yl}-1-methyl-2,4-dioxo-1,2,3,4-tetrahydropyrimidine-5-carboxamide]",33

# Molecular target: T2, His6-PDK1 (aa 52-556) (Homo sapiens, UniProt O15530)
# T2 construct: 15 μL His6-PDK1 (aa 52-556) 3.33 ng/well); host or cells: baculovirus-infected insect cells
# T2 sequence (O15530 52-556): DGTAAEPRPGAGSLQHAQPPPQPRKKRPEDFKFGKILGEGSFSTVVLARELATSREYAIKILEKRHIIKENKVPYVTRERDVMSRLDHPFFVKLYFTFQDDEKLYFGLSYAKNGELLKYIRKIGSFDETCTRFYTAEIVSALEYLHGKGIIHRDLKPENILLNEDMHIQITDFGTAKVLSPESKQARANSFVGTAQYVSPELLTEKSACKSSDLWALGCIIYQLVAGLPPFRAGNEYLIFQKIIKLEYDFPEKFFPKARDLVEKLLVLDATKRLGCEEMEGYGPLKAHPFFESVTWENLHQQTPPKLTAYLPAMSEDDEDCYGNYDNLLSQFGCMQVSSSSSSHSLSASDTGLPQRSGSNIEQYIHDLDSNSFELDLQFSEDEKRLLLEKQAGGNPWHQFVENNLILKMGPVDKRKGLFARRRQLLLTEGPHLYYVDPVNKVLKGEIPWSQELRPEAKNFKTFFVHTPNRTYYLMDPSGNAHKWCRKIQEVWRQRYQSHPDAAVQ
# Test: PDK1 kinase assay III (with Tween 20)
# Assay type: biochemical
# Conditions: compound at 10 μM; PDK1 kinase assay III (values without asterisk); read-out: % CTL (residual activity of the enzyme relative to DMSO control)
# Procedure, shortened: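 Started with ATP, incubated 90 min at ambient temperature, then stopped with phosphoric acid. Asterisked values come from assay II (24 h or 5 min incubation).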
row,Compound,remaining activity at 10 µM [%]
1,"Cc1c(C#CCNC(=O)c2c(C)n(C)n(Cc3ccc(F)c(F)c3)c2=O)c(=O)n(CCN)c2nc(Nc3ccc(N4CCOCC4)cc3)ncc12 [IV-60, N-{3-[8-(2-aminoethyl)-5-methyl-2-{[4-(morpholin-4-yl)phenyl]amino}-7-oxo-7,8-dihydropyrido[2,3-d]pyrimidin-6-yl]prop-2-yn-1-yl}-2-(3,4-difluorobenzyl)-1,5-dimethyl-3-oxo-2,3-dihydro-1H-pyrazole-4-carboxamide]",13.3
2,"CN(C)Cc1ccc(Nc2ncc3cc(/C=C/CNC(=O)c4nc(Cl)cn(Cc5ccc(F)c(F)c5)c4=O)ccc3n2)cc1 [IV-61, 6-chloro-4-(3,4-difluorobenzyl)-N-{(2E)-3-[2-({4-[(dimethylamino)methyl]phenyl}amino)quinazolin-6-yl]prop-2-en-1-yl}-3-oxo-3,4-dihydropyrazine-2-carboxamide]",13.9
3,O=C(NC/C=C/c1ccc2nc(Nc3ccccc3)ncc2c1)c1cncn(Cc2ccc(F)c(F)c2)c1=O [IV-62],19.1
4,CC(C)Nc1ncc2cc(/C=C/CNC(=O)c3cccn(Cc4ccc(F)c(F)c4)c3=O)ccc2n1 [IV-91],26.1

# Same assay, conditions: read-out: % CTL (residual activity of the enzyme relative to DMSO control)
row,Compound,remaining activity at 10 µM [%]
1,Cc1c(C(=O)NC/C=C/c2ccc3nc(NC(C)C)ncc3c2)c(=O)n(Cc2ccc(F)c(F)c2)n1C [IV-92],21.6
